Assay results from patent publication US10329231B2, “Epoxy compound, method for producing the same, epoxy resin composition, and cured product thereof” (DIC Corporation, priority 2012, dated 2019).

Legend:
Type in all cases: physicochemical
[1] = Softening point, ball & ring (B & R) method, JIS K7234; details: glycerin heating medium
Description: 2) Method for measuring softening point: measured by a ball & ring (B & R) method using glycerin as a heating medium according to JIS K7234.
Apparatus name: ASP-M2 model manufactured by Meitec Corporation

[2] = Melt viscosity at 150° C., ASTM D4287 (ICI viscometer method); parameters: Melt viscosity at 150° C. of epoxy resin: unit not given here; details: for Melt viscosity at 150° C. of epoxy resin: Table 1
Description: 1) Melt viscosity at 150° C.: measured with an apparatus below according to ASTM D4287.
Apparatus name: MODEL CV-1S manufactured by Codex Corporation

[3] = Solubility in hexane during purification; details: reflux then room temperature
Description: Oxidative coupling reaction and solvent extraction were performed under the same conditions as in Example 1. Ethyl acetate was distilled off under vacuum, and then hexane was added to the resultant crude product. The mixture was transferred to a SUS container provided with a thermometer, a stirrer, and Dean-Stark trap, and hexane was further added so that the total amount was 5 L, followed by reflux. The hexane solution was cooled to room temperature, and then insoluble substances were filtered off. The solvent of the filtrate was distilled off under vacuum, and the residue was dried at 110° C. for 5 hours to produce 2 g (yield 3%) of a solid containing [1,1′-binaphthalene]-2,2′,7,7′-tetraol as a main component.

c1cc2ccc(OCC3CO3)c(Cc3c(OCC4CO4)ccc4ccc(OCC5CO5)cc34)c2cc1OCC1CO1 (stereo not shown) [Example A-2, reference compound]
Softening point of epoxy resin [1]: 91 °C
Melt viscosity at 150° C. of epoxy resin ([2]; 150° C.): 4.5
150° C. melt viscosity ([2]; 150° C., data given with the product description): 4.5 ps

Oc1ccc2ccc(O)c(-c3c(O)ccc4ccc(O)cc34)c2c1 [1,1′-Binaphthalene]-2,2′,7,7′-tetraol, [1,1′-binaphthalene]-2,2′,7,7′-tetraol]
solubility in hexane [3]: low solubility

c1cc2ccc(OCC3CO3)c(-c3c(OCC4CO4)ccc4ccc(OCC5CO5)cc34)c2cc1OCC1CO1 (stereo not shown) [Example A-1, 2,2′,7,7′-tetraglycidyloxy-[1,1′-binaphthalene]]
Softening point of epoxy resin [1]: 61 °C
Melt viscosity at 150° C. of epoxy resin ([2]; 150° C.): 1.1
melt viscosity ([2]; ICI viscometer method, measurement temperature 150° C.): 1.1 dPa·s
